Measured values reported in patent publication US8920822B2, “Skin beautifier” (Megmilk Snow Brand Co., Ltd., priority 2004, dated 2014).

Key:
CD-1 (ICR)-nu/nu mice [1] = test: Moisture content of the tail skin of nude mice after 4 weeks of oral feeding (Corneometer); type: in vivo, mouse; settings: for increase of the moisture content of the skin: end vs start of administration; for Increase Rate of Moisture: value at end of feeding with start = 100
Description: (§1) Effects of the skin beautifier according to the present invention were investigated by an animal test using nude mice.
(§2) A sphingomyelin raw material (Phospholac 500; manufactured by NZMP) containing 10% of sphingomyelins was dissolved in deionized water as shown in Table 1. The solution was heated to 50° C. and then mixed under stirring with an ultradisperser (ULTRA-TURRAX T-25; manufactured by IKA Japan) at 9500 rpm for 20 minutes to prepare Test Feeds 1 to 3.
(§3) Five-week old CD-1 (ICR)-nu/nu mice were divided into the following 4 test groups (10 mice in each group), namely, (Group A) a group receiving 10 g of physiological saline per kg of mouse body weight, (Group B) a group receiving 10 g of the Test Feed 1 per kg of mouse body weight, (Group C) a group receiving 10 g of the Test Feed 2 per kg of mouse body weight, and (Group D) a group receiving 10 g of the Test Feed 3 per kg of mouse body weight. Mice in all the groups were fed by orally administering the feed once daily by gavage feeding for 4 weeks. Moisture contents and transepidermal water losses in the tail skin of each mouse were measured at the start and the end of the feeding. Values at the end of the feeding (rates of increase) were calculated by assuming each of the values at the start of the feeding to be 100. The moisture contents of the skin and the transepidermal water losses were measured using Corneometer and Tewameter, respectively, which were manufactured by Courage+Khazaka.

CD-1 (ICR)-nu/nu mice [2] = test: Transepidermal water loss in the tail skin of nude mice after 4 weeks of oral feeding (Tewameter); type: in vivo, mouse; settings: for Increase Rate of Transepidermal Water Loss: value at end of feeding with start = 100; for increase of the transepidermal water loss: after 4-week administration
Description: as §1, §2, §3

[3] = Group B, Test Feed 1, sphingomyelin 2 mg/kg orally once daily for 4 weeks
[4] = Group C, Test Feed 2, sphingomyelin 5 mg/kg orally once daily for 4 weeks
[5] = Group D, Test Feed 3, sphingomyelin 10 mg/kg orally once daily for 4 weeks
[6] = oral administration, nude mice, covers moisture content and TEWL

sphingomyelin
increase of the moisture content of the skin (CD-1 (ICR)-nu/nu mice [1]; Group B (printed Group 13), 2 mg/kg orally): about 1.5 times
Increase Rate of Moisture (CD-1 (ICR)-nu/nu mice [1]; [3]): 155%
increase of the moisture content of the skin (CD-1 (ICR)-nu/nu mice [1]; Group C, 5 mg/kg orally): about 2.5 times
Increase Rate of Moisture (CD-1 (ICR)-nu/nu mice [1]; [4]): 245%
increase of the moisture content of the skin (CD-1 (ICR)-nu/nu mice [1]; Group D, 10 mg/kg orally): about 2.5 times
Increase Rate of Moisture (CD-1 (ICR)-nu/nu mice [1]; [5]): 253%
dose at which the effects (skin moisture increased, transepidermal water loss decreased) were observed (CD-1 (ICR)-nu/nu mice [1]; [6]): ≥ 2 mg per kg of mouse body weight
dose at which the effects (skin moisture increased, transepidermal water loss decreased) were significant (CD-1 (ICR)-nu/nu mice [1]; [6]): ≥ 5 mg per kg of mouse body weight
Increase Rate of Transepidermal Water Loss (CD-1 (ICR)-nu/nu mice [2]; [3]): 152%
increase of the transepidermal water loss (CD-1 (ICR)-nu/nu mice [2]; Group C, 5 mg/kg orally): about 1.4 times
Increase Rate of Transepidermal Water Loss (CD-1 (ICR)-nu/nu mice [2]; [4]): 137%
increase of the transepidermal water loss (CD-1 (ICR)-nu/nu mice [2]; Group D, 10 mg/kg orally): about 1.4 times
Increase Rate of Transepidermal Water Loss (CD-1 (ICR)-nu/nu mice [2]; [5]): 140%
